# Source: patent US20240182436A1, “SUBSTITUTED SULFONAMIDE-CHROMAN COMPOUNDS, AND PHARMACEUTICAL COMPOSITIONS, AND METHODS OF USE THEREOF” (priority 2021, published 2024)
# System: Harmaline-induced tremor
# Assay: Harmaline-induced Tremor Model
# Assay type: in vivo
# Settings: Mus musculus, ip, adult male CD1 mice; test article 30 mg/kg i.p.; harmaline 30 mg/kg i.p.; read-out: Tremor Suppression Activity (magnitude of tremor suppression in percent compared to vehicle)
# From the text: Harmaline-induced Tremor: Harmaline-induced tremor is widely recognized as an animal model of Essential Tremor (ET). Following acute administration, harmaline produces an 8-16 Hz tremor in rodents, cats, and monkeys that, like ET, is postural and kinetic, involving appendicular and axial musculature (Handforth, A. (2012). Harmaline tremor: underlying mechanisms in a potential animal model of essential tremor. Tremor and Other Hyperkinetic Movements (NY), 2, 02-92-769-1; Handforth, A. (2016). Linking Essential Tremor to the Cerebellum-Animal Model Evidence. Cerebellum, 15(3), 285-298; LeDoux, M. (2005). Harmaline tremor. In Movement Disorders. Elsevier Inc.; Louis, E. D. (2014). Re-thinking the biology of essential tremor: From models to morphology. Parkinsonism and Related Disorders, 20 (SUPPL.1), S88-S93). […] Clinical agents that suppress ET in patients are generally effective in the harmaline-induced tremor model (Handforth 2016). Following acute dosing of harmaline in mice, the tremor frequency (10-20 Hz) is typically recorded using an automated force plate-based system.
# Procedure: Tremor activity was measured using a custom-made testing apparatus containing a piezoelectric sensing platform which was connected to an amplifier (A-M Systems model 1700). Adult male CD1 mice were brought to the experiment room for acclimatization 1 h prior to testing. Mice were first placed inside the testing apparatus for 10 min baseline habituation. After the initial habituation, mice were treated with vehicle (10 ml/kg) or test article (30 mg/kg, i.p.) and placed back in the apparatus for an additional 20 min baseline recording. Subsequently, animals were injected with harmaline (30 mg/kg, i.p.) and tremor activity was measured for 20 min. The electric signal of tremor activity was amplified at a sampling rate of 512 Hz with a multichannel amplifier and then acquired, quantized, and digitized by a data acquisition unit (CED Micro 1401). The software Spike2 (v 7.07, Cambridge Electronic Design, Cambridge, UK) was used to analyze the tremor signal by performing Fourier transformation of the data into frequency spectra. Changes in absolute power were expressed relative to each animal's 20-min baseline for the frequencies of 10-20 Hz. Comparisons between treatment and respective vehicle groups were assessed with two-tailed, Student's t-test. The level of statistical significance was defined as p<0.05 (see, e.g., Table 2.1) The magnitude of tremor suppression in percent compared to vehicle is shown in Table 2.2.
# A tremor suppression score was defined as the magnitude of tremor suppression in percent compared to vehicle: ≤24% (D), 25-55% (C), 56-70% (B) and 71-100% (A). Not tested (---).
row,SMILES,inhibition in vivo at 30 mg/kg [%]
1,"C[C@@H]1COc2ccccc2[C@@H]1CS(N)(=O)=O (stereo in doubt) [Compound 40, ((3S*,4R*)-3-methylchroman-4-yl)methanesulfonamide]",25 to 55
2,"C[C@H]1COc2ccccc2[C@H]1CS(N)(=O)=O (stereo in doubt) [Compound 39, ((3R*,4S*)-3-methylchroman-4-yl)methanesulfonamide]",25 to 55
3,"C[C@@H]1COc2cc(F)ccc2[C@H]1NS(N)(=O)=O (relative stereo) [Compound 76, (3(S*),4(S*))-7-fluoro-3-methyl-4-(sulfamoylamino)-3,4-dihydro-2(H)-chromene]",56 to 70
4,"C[C@@H]1C[C@H](CS(N)(=O)=O)c2ccccc2O1 (stereo in doubt) [Compound 33, ((2R*,4S*)-2-methylchroman-4-yl)methanesulfonamide]",25 to 55
5,"CC[C@H]1COc2cc(F)ccc2[C@H]1CS(N)(=O)=O (stereo in doubt) [Compound 19, ((3R*,4S*)-3-ethyl-7-fluorochroman-4-yl)methanesulfonamide]",≤ 24
6,"CC1(C)CC(CS(N)(=O)=O)c2ccc(F)cc2O1 (single isomer, unassigned) [Compound 45, (R*)-(7-fluoro-2,2-dimethylchroman-4-yl)methanesulfonamide]",71 to 100
7,"Cc1ccc2c(c1)OCCC2CS(N)(=O)=O (single isomer, unassigned) [Compound 57, (S*)-(7-methylchroman-4-yl)methanesulfonamide]",≤ 24
8,"C[C@H]1COc2cc(F)ccc2[C@H]1NS(N)(=O)=O (stereo in doubt) [Compound 74, (3(R*),4(S*))-7-fluoro-3-methyl-4-(sulfamoylamino)-3,4-dihydro-2(H)-chromene]",56 to 70
9,"CC[C@H]1C[C@@H](CS(N)(=O)=O)c2ccc(F)cc2O1 (stereo in doubt) [Compound 12, ((2S*,4R*)-2-ethyl-7-fluorochroman-4-yl)methanesulfonamide]",56 to 70
10,"CC[C@@H]([C@H]1CCOc2cc(F)ccc21)S(N)(=O)=O (stereo in doubt) [Compound 25, (S*)-1-((S*)-7-fluorochroman-4-yl)propane-1-sulfonamide]",56 to 70

# Same assay, conditions: adult male CD1 mice; test article 30 mg/kg i.p.; harmaline 30 mg/kg i.p.
row,SMILES,Tremor Suppression Activity (magnitude of tremor suppression in percent compared to vehicle)
1,"CC1(C)CC(CS(N)(=O)=O)c2cc(F)c(F)cc2O1 (single isomer, unassigned) [Compound 6, (R*)-(6,7-difluoro-2,2-dimethylchroman-4-yl)methanesulfonamide]",A (71-100% (A))
2,"NS(=O)(=O)CC1CCOc2cc(C(F)(F)F)ccc21 (single isomer, unassigned) [Compound 38, (R*)-(7-(trifluoromethyl)chroman-4-yl)methanesulfonamide]",A (71-100% (A))
3,"NS(=O)(=O)CC1CCOc2cc(Cl)ccc21 (single isomer, unassigned) [Compound 32, (R*)-(7-chlorochroman-4-yl)methanesulfonamide]",B (56-70% (B))
4,"NS(=O)(=O)CC1CCOc2cc(F)c(F)cc21 (single isomer, unassigned) [Compound 30, (R*)-(6,7-difluorochroman-4-yl)methanesulfonamide]",A (71-100% (A))
5,"CC1(C)CC(CS(N)(=O)=O)c2ccc(F)cc2O1 (single isomer, unassigned) [Compound 46, (S*)-(7-fluoro-2,2-dimethylchroman-4-yl)methanesulfonamide]",A (71-100% (A))

# Same assay, conditions: adult male CD1 mice; test article 30 mg/kg i.p.; harmaline 30 mg/kg i.p.; 10-20 Hz power over 20 min relative to 20-min baseline
row,SMILES,Tremor power relative to baseline (mean ± s.e.m.)
1,"CC1(C)CC(CS(N)(=O)=O)c2ccc(F)cc2O1 (single isomer, unassigned) [Compound 45, (R*)-(7-fluoro-2,2-dimethylchroman-4-yl)methanesulfonamide]",144 ± 35
2,"CC[C@H]1C[C@@H](CS(N)(=O)=O)c2ccc(F)cc2O1 (stereo in doubt) [Compound 12, ((2S*,4R*)-2-ethyl-7-fluorochroman-4-yl)methanesulfonamide]",196 ± 59
3,"CC1(C)CC(CS(N)(=O)=O)c2ccc(F)cc2O1 (single isomer, unassigned) [Compound 46, (S*)-(7-fluoro-2,2-dimethylchroman-4-yl)methanesulfonamide]",145 ± 27
